System: PD-L1 expression in 4T1 cells
Test: Immunoblot analysis of PD-L1 expression
Type: cell-based, mouse
Conditions: 4T1 cells cultured 48 h after exposure at 42 ℃ for 10 min
Method: fluctuations were continuously recorded using an infrared thermal imaging camera (FLIR E50, USA).
Cell lysis and immunoblotting
Cells were washed with PBS and lysed using RIPA buffer supplemented with protease inhibitors. The lysates were subjected to SDS-PAGE (12% or 10% Bis-Tris gel) and subsequently transferred onto a nitrocellulose membrane. The membrane was blocked with TBS-T containing 5% non-fat dry milk, followed by overnight incubation with the primary antibody at 4 °C. After triplicate washing with TBS-T, the membrane was incubated with the HRP-conjugated secondary antibody for 1 h at room temperature and developed using ECL detection reagents.
The TRIzol reagent was used for RNA extraction according to the manufacturer's instructions. Total RNA was reverse -transcribed into cDNA using an iScript cDNA synthesis kit. Quantitative analysis of the target genes was performed using the Universal SYBR Green Supermix qPCR kit. GAPDH was used as the reference gene for relative quantification normalization, with details of the primer sequences provided in Supplementary Table 1. […]
The lysis buffer was then neutralized by adding an equal volume of RPMI 1640 medium, followed by centrifugation at 500 × g for 3 min. […] After incubation, the cells were washed with PBS to remove T cells and debris, followed by crystal violet staining to quantify the live cancer cells. […]

## GFTATPPPDSPQEP/PEIF [PTPRF, fluorinated PTPR: PTPR combined with fluorinated polyethyleneimine PEIF]
  concentration that effectively inhibited PD-L1 expression: 10 µM
